For one series, the system named is HAdV5-GFP. In words: Plaque assay, HAdV5-GFP in 293β5 cells. The format is cell-based. The conditions noted are these: read-out: Percentage of plaque formation inhibition, HAdV5-GFP, 10 μM, 293β5 cell line. As to the method:
1.5. Plaque assay. For low MOI infections, active compounds were further evaluated in a plaque assay. 293β5 cells were seeded in 6-well plates at 4×10^5 cells per well in duplicate for each condition. When cells reached 80-90% confluency, they were infected with HAdV5-GFP or HAdV16-GFP (0.06 vp/cell) and rocked for 2 h at 37° C. The inoculum was removed and the cells were washed once with PBS. The cells were then carefully overlaid with 4 ml/well of equal parts of 1.6% […] Difco Agar Noble (Becton, Dickinson & Co, Sparks, MD) and 2× EMEM (BioWhittaker) supplemented with 2x penicillin/streptomycin, 2× L-glutamine and 10% FBS. The mixture also contained compound in concentrations ranging from 5 to 1 μM. Following incubation for 7 days at 37° C., plates were scanned with a Typhoon 9410 imager (GE Healthcare Life Sciences), and plaques were quantified with ImageJ.43
For the plaque assay 293β5 cells were infected with HAdV5-GFP (in the presence of compound at 10 μM) (Table 2). From this generation of compounds, our primary screening identified 4 compounds (12, 13, 22 and 25) that inhibited HAdV5-GFP plaque formation >90% compared to a control with the same volume of DMSO.

A short description of series [1]: Cytotoxicity assay (alamarBlue cell viability). The format is cell-based, Human. The note with it: human, A549 cells. As to the method: 1.4. Cytotoxicity assay. The cytotoxicity of the compounds was measured using the AlarmBlue cell viability assay (Invitrogen) according to the manufacturer's instructions. Actively dividing A549 cells were incubated with compounds for 48 h. After the incubation the alamarBlue reagent was added to the cells ( 1/10th alamarBlue reagent in culture medium) for an extra 4 h. The 50% cell cytotoxic concentration (CC50) of the molecules was calculated according to Cheng et al.42 The selectivity index (SI) was evaluated as the ratio of CC50 to IC50, where the IC50 is defined as the concentration of compound that inhibits HAdV infection by 50%.
On the technique in general: Alamar Blue is a resazurin reagent that responds to reducing activity.

The source of these data is patent US20190308956A1, “PIPERAZINE DERIVATIVES AS ANTIVIRAL AGENTS WITH INCREASED THERAPEUTIC ACTIVITY” (SERVICIO ANDALUZ DE SALUD, priority 2016, published 2019).

A value given as a limit tells only on which side of the number the result lay.

With `CC1CN(C(=O)C(C)(C)C)CCN1C(=O)c1ccc([N+](=O)[O-])cc1` (centres unmarked) [Compound 15, 2-Methyl-1-(4-nitrobenzoyl)-4-pivaloylpiperazine], the melting point is 143 to 145 °C. Moreover, in the series with HAdV5-GFP, the inhibition at 10 µM was 23.1 ± 3.71%.
The compound `CC(C)(C)C(=O)N1CCN(C(=O)Nc2ccc(C#N)cc2)C(c2ccccc2)C1` (centres unmarked) [Compound 57, 1-[(4-Cyanophenyl)aminocarbonyl]-2-phenyl-4-pivaloylpiperazine] showed a melting point of 151 to 153 °C. The inhibition at 10 µM with HAdV5-GFP stood at 84 ± 6.75%. The same compound had a CC50 at 48 h in series [1] (48 h) of 147 ± 38 µM.
In turn, `CC1CN(C(=O)OC(C)(C)C)CCN1C(=O)Nc1ccc(Cl)c(C(F)(F)F)c1` (centres unmarked) [Compound 31, 4-tert-Butoxycarbonyl-1-[(4-chloro-3-trifluoromethylphenyl)aminocarbonyl]-2-methylpiperazine] returned a melting point of 157 to 159 °C. The inhibition at 10 µM in the series with HAdV5-GFP was in the range of 91 to 100%. In series [1] (48 h), this compound showed a CC50 at 48 h of 20.8 ± 0.64 µM.
Regarding `CC1CN(C(=O)c2cc3ccccc3o2)CCN1C(=O)Nc1ccccc1F` (centres unmarked) [Compound 37, 4-(Benzofuran-2-carbonyl)-1-[(2-fluorophenyl)aminocarbonyl]-2-methylpiperazine], the melting point lay within 127 to 129 °C. Moreover, the inhibition at 10 µM in the series with HAdV5-GFP stood at 50.9 ± 4.13%.
The compound `O=C(c1cc2ccccc2o1)N1CCN(C(=O)Nc2ccc(F)cc2)C(c2ccccc2)C1` (centres unmarked) [Compound 62, 4-(Benzofuran-2-carbonyl)-1-[(4-fluorophenyl)aminocarbonyl]-2-phenylpiperazine] displayed a melting point of 122 to 124 °C. Besides, the inhibition at 10 µM in the series with HAdV5-GFP was 98.81 ± 0.15%. The CC50 at 48 h in series [1] (48 h) worked out at 12.5 ± 0.79 µM.
Consider `CC1CN(C(=O)OC(C)(C)C)CCN1C(=O)c1ccc([N+](=O)[O-])cc1` (centres unmarked) [Compound 10, 4-tert-Butoxycarbonyl-2-methyl-1-(4-nitrobenzoyl)piperazine], for which the melting point fell in the range of 115 to 117 °C. In addition, the inhibition at 10 µM in the series on HAdV5-GFP was found to be 33.6 ± 2.17%.
`CC1CN(C(=O)OC(C)(C)C)CCN1C(=O)Nc1ccc(C(F)(F)F)cc1` (centres unmarked) [Compound 28, 4-tert-Butoxycarbonyl-2-methyl-1-[(4-trifluoromethylphenyl)aminocarbonyl]piperazine]: the inhibition at 10 µM in the series on HAdV5-GFP was 30.6 ± 14.6%. In addition, the CC50 at 48 h in series [1] (48 h) is 137 ± 24.3 µM.
Compound `COc1ccc(C(=O)N2CCN(C(=O)C(C)(C)C)CC2C)cc1` (centres unmarked) [Compound 16, 1-(4-Methoxybenzoyl)-2-methyl-4-pivaloylpiperazine] had a melting point of 96 to 97 °C. Moreover, the inhibition at 10 µM in the series with HAdV5-GFP was determined as 0%.
With `CC1CN(C(=O)OC(C)(C)C)CCN1C(=O)Nc1ccc([N+](=O)[O-])cc1` (centres unmarked) [Compound 13, 4-tert-Butoxycarbonyl-2-methyl-1-[(4-nitrophenyl)aminocarbonyl]piperazine], the inhibition at 10 µM with HAdV5-GFP was above 90%. The CC50 at 48 h in series [1] (48 h) was 143 ± 3.29 µM.
For `CC(C)(C)OC(=O)N1CCN(C(=O)Nc2ccc(C#N)cc2)C(c2ccccc2)C1` (centres unmarked) [Compound 50, 4-tert-Butoxycarbonyl-1-[(4-cyanophenyl)aminocarbonyl]-2-phenylpiperazine] the same measures were 67.2 ± 16.5% and 91.3 ± 61.5 µM.
On to `COc1ccc(C(=O)N2CCN(C(=O)OC(C)(C)C)CC2C)cc1` (centres unmarked) [Compound 11, 4-tert-Butoxycarbonyl-1-(4-methoxybenzoyl)-2-methylpiperazine], for which the melting point is 84 to 87 °C. In the series on HAdV5-GFP, the inhibition at 10 µM came out at 33.8 ± 4.02%.
For `CC1CN(C(=O)c2cc3ccccc3o2)CCN1C(=O)Nc1ccc(F)cc1F` (centres unmarked) [Compound 39, 4-(Benzofuran-2-carbonyl)-1-[(2,4-difluorophenyl)aminocarbonyl]-2-methylpiperazine] the same measures were 163 to 165 °C and 34.2 ± 13.6%.
Regarding `CC1CN(C(=O)c2cc3ccccc3o2)CCN1C(=O)Nc1ccc(F)cc1` (centres unmarked) [Compound 35, 4-(Benzofuran-2-carbonyl)-1-[(4-fluorophenyl)aminocarbonyl]-2-methylpiperazine], the melting point lay in the range of 93 to 95 °C. Besides, the inhibition at 10 µM in the series on HAdV5-GFP was 91 to 100%. In series [1], this compound registered a CC50 at 48 h above 200 µM. Moreover, the CC50 at 48 h in series [1] (48 h) is 221 ± 29 µM.
`CC1CN(C(=O)c2cc3ccccc3o2)CCN1C(=O)Nc1ccc([N+](=O)[O-])cc1` (centres unmarked) [Compound 25, 4-(Benzofuran-2-carbonyl)-2-methyl-1-[(4-nitrophenyl)aminocarbonyl]piperazine]: in the series on HAdV5-GFP, the inhibition at 10 µM was above 90%. In series [1] (48 h), this compound came in with a CC50 at 48 h of 51.1 ± 7.35 µM.
For `Cc1ccc(NC(=O)N2CCN(C(=O)OC(C)(C)C)CC2c2ccccc2)cc1` (centres unmarked) [Compound 55, 4-tert-Butoxycarbonyl-1-[(4-methylphenyl)aminocarbonyl]-2-phenylpiperazine], in that order: 63.02 ± 0.2% and 165 ± 17.4 µM.
With `CC1CN(C(=O)c2ccccc2)CCN1C(=O)c1ccc([N+](=O)[O-])cc1` (centres unmarked) [Compound 20, 4-Benzoyl-2-methyl-1-(4-nitrobenzoyl)piperazine], the melting point lay in the range of 103 to 105 °C. The inhibition at 10 µM in the series with HAdV5-GFP was determined as 0%.
In turn, `COc1ccc(NC(=O)N2CCN(C(=O)c3cc4ccccc4o3)CC2C)cc1` (centres unmarked) [Compound 26, 4-(Benzofuran-2-carbonyl)-1-[(4-methoxyphenyl)aminocarbonyl]-2-methylpiperazine] returned a melting point of 170 to 172 °C. For the same compound, in the series on HAdV5-GFP, the inhibition at 10 µM is 33.6 ± 14.7%.
For the compound `CC(C)(C)OC(=O)N1CCN(C(=O)Nc2ccc(Cl)c(C(F)(F)F)c2)C(c2ccccc2)C1` (centres unmarked) [Compound 53, 4-tert-Butoxycarbonyl-1-[(4-chloro-3-trifluoromethylphenyl)aminocarbonyl]-2-phenylpiperazine], in the series with HAdV5-GFP, the inhibition at 10 µM amounted to 100%. Further, in series [1] (48 h), it took 27.5 µM to reach half-maximal cytotoxicity (CC50 at 48 h).
Compound `CC1CN(C(=O)OC(C)(C)C)CCN1C(=O)Nc1ccccc1[N+](=O)[O-]` (centres unmarked) [Compound 29, 4-tert-Butoxycarbonyl-2-methyl-1-[(2-nitrophenyl)aminocarbonyl]piperazine] gave a melting point of 199 to 201 °C. Moreover, in the series on HAdV5-GFP, the inhibition at 10 µM came to 50 ± 2.75%.
As to `CC(C)(C)OC(=O)N1CCN(C(=O)Nc2cc(C(F)(F)F)ccc2Cl)C(c2ccccc2)C1` (centres unmarked) [Compound 52, 4-tert-Butoxycarbonyl-1-[(2-chloro-5-trifluoromethylphenyl)aminocarbonyl]-2-phenylpiperazine], in the series on HAdV5-GFP, the inhibition at 10 µM is 100%. The CC50 at 48 h in series [1] (48 h) is 93.36 ± 0.73 µM.
Compound `COc1ccc(NC(=O)N2CCN(C(=O)C(C)(C)C)CC2c2ccccc2)cc1` (centres unmarked) [Compound 58, 1-[(4-Methoxyphenyl)aminocarbonyl]-2-phenyl-4-pivaloylpiperazine] yielded a melting point of 62 to 65 °C. Moreover, in the series with HAdV5-GFP, the inhibition at 10 µM amounted to 70.1 ± 2.7%. In series [1] (48 h), this compound gave a CC50 at 48 h of 199 ± 33.6 µM.
For `O=C(c1cc2ccccc2o1)N1CCN(C(=O)Nc2ccc(C(F)(F)F)cc2)C(c2ccccc2)C1` (centres unmarked) [Compound 61, 4-(Benzofuran-2-carbonyl)-2-phenyl-1-[(4-trifluoromethylphenyl)aminocarbonyl]piperazine] the same measures were 134 to 136 °C, 100% and 70.7 ± 21.4 µM.
As to `CC1CN(C(=O)OC(C)(C)C)CCN1C(=S)Nc1ccc([N+](=O)[O-])cc1` (centres unmarked) [Compound 12, 4-tert-Butoxycarbonyl-2-methyl-1-[(4-nitrophenyl)aminothiocarbonyl]piperazine], the inhibition at 10 µM with HAdV5-GFP was above 90%. In addition, the CC50 at 48 h in series [1] (48 h) amounted to 26.3 ± 1.59 µM.

The inhibition is the drop in the measured response relative to a control, in per cent. The melting point is the temperature of the solid-liquid transition. Usually CC50 stands for the concentration at which the toxic effect on the cells reaches its halfway point.
